Assay results as given in US6376488B1, “Benzoxazine α-1 adrenergic compounds” (Abbott Laboratories, priority 2000, dated 2002).
Where a name gives a salt, the structure may show the parent alone.

How the values were obtained:
α1d (rat) adrenoreceptor = molecular target: T1, α1d (rat) adrenoreceptor (Rattus norvegicus, UniProt P23944); assay: [3H]-prazosin radioligand binding, cloned α1d (rat) adrenoreceptor in LTK cells; details: cloned receptor in LTK cell membranes, [3H]prazosin 0.2 nM
T1 sequence (P23944 1-561): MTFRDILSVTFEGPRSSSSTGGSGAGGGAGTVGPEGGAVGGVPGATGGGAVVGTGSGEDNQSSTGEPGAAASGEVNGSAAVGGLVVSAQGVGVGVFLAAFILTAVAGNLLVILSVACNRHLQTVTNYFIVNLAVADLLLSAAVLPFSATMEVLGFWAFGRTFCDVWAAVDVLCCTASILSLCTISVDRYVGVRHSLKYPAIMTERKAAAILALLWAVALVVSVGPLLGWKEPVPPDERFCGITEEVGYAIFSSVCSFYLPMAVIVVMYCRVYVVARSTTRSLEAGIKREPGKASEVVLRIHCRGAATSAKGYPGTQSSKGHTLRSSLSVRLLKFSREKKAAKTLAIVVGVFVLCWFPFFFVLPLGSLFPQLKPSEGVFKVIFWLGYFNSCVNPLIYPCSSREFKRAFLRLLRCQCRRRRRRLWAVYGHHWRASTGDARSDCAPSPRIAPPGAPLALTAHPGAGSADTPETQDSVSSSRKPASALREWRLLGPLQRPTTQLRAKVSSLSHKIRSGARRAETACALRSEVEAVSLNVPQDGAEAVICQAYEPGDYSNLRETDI
Description: (§1) Representative compounds of the invention were evaluated for α adrenoreceptor binding affinity in vitro using [^3H]-prazosin as the radioligand and following four cloned α1, adrenoreceptors expressed in LTK cells: α1a (rat), α1a (bovine), α1b : (hampster), and α1d (rat).
(§2) The cDNA clones encoding the α1, adrenoreceptors were obtained from TULCO (Triangle Universities Licensing Consortium, Research Triangle Park, N.C.) and inserted into the eukaryotic expression vector SnaB30. In this vector, expression of the adrenoreceptor gene is under the transcriptional control of an SV40 early promoter. Positive drug selection is provided by a neomycin-resistance gene. Mouse fibroblast cells (LTK) were transfected with the α1 expression plasmids and grown in Dulbecco's modified Eagle's medium (DMEM) containing 10% fetal calf serum and 30 μM G418. Stable G418-resistant parental lines were generated with successful expression of adrenoreceptor protein monitored using radioligand binding techniques. Stable single cell clones derived from the parental lines were screened in adrenoreceptor binding assays to identify clones having high adrenoreceptor density. Roller bottle cultures of the cloned lines were used to provide cell membranes for subsequent adrenoreceptor binding characterization studies. A cell line containing the SnaB30 vector expressing the human erythropoietin gene served as a negative control.
(§3) For adrenoreceptor binding assays, large scale membrane preparations were utilized in which 6 million cells were seeded into small (450 cm^2) Coming tissue culture roller bottles. DMEM (200 mL) containing 10% fetal calf serum and 300 μM G418 were added to each roller bottle. A 95% air/5% CO2 gas mixture (sterile) was injected into each roller bottle prior to sealing, and the bottles were then incubated at 37° C. on a roller rack for 5 days. Cells were refed with fresh medium after 3 days in culture.
(§4) On the fifth day of culture, growth medium was removed from cells grown in roller bottles, and the cells were washed twice with PBS (Sigma, 120 mM NaCl, 2.7 mM KCl, 10 mM Na2HPO4-NaH2PO4, pH=7.4). Cells were detached from the roller bottles by incubating for 15 minutes at 37° C. in a Tris-EDTA solution (10 mM Tris, 100 mM NaCl, 1 mM EDTA, pH=7.4). The cell suspension from each roller bottle was decanted into tared centrifuge tubes and kept on ice. An aliquot of each cell suspension was generally taken for cell counting. Cells were centrifuged at 3000×G for 5 minutes at 2-4° C., washed with PBS and recentrifuged. The supernatant was decanted, and the pellet was weighed to determine the wet weight of cells. Cells were washed a final time in 40 vol 5 mM Tris-HCl, 5 mM EDTA, pH=7.7 and centrifuged at 40,000×G for 10 minutes (“vol” indicates volume/weight, e.g., a “vol” of 40 would indicate that the one gram of cells were washed with 40 mls of buffer). Cells were homogenized in of 50 mM Tris-HCl, 5 mM EDTA (pH=7.4) (10 mL) and diluted to 40 mL/tube. Homogenates were centrifuged at 40,000×G for 10 minutes. The supernatant was decanted and the pellets rehomogenized in 50 mM Tris-HCl (pH=7.4) and centrifuged as before. The supernatant was decanted and the homogenate was resuspended in 6.25 volumes (per gram wet weight) of 50 mM Tris-HCl and aliquots of the pooled homogenates frozen in liquid N2 and,stored at −70° C. until the time of assay.
(§5) Receptor binding assays for α1 adrenoreceptors were performed essentially as described by Greengrass and Bremner (Eur. J. Pharmacol. 55: 323-326 (1979)). […] Following equilibration, bound radioligand was separated from free on GF/B filters (presoaked in 0.5% polyethyleneimine) using ither a Brandel or Packard cell harvester. Radioactivity was determined by standard liquid scintillation techniques. Data were analyzed as previously described (Hancock, A. A., Kyncl, J. J., Martin, Y. C. and DeBemardis, J. F., J. Receptor Res. 8: 23-46 (1988)). The in Table 1.

[1] = molecular target: T2, α1a (bovine) adrenoreceptor (Bos taurus, UniProt P18130); assay: [3H]-prazosin radioligand binding, cloned α1a (bovine) adrenoreceptor in LTK cells; details: cloned receptor in LTK cell membranes, [3H]prazosin 0.2 nM
T2 sequence (P18130 1-466): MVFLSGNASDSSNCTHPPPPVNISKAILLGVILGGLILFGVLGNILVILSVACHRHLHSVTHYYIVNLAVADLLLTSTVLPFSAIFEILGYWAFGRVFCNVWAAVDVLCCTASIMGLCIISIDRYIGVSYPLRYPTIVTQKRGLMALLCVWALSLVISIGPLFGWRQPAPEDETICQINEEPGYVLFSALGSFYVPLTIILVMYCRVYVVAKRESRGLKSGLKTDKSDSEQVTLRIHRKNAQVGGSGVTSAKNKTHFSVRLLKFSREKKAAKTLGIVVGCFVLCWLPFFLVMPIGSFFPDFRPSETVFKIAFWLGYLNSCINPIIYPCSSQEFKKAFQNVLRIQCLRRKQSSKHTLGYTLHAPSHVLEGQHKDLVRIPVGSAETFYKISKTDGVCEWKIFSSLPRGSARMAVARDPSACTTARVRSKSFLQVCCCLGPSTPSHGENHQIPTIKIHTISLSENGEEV
Description: as §1, §2, §3, §4, §5

Row | Compound | Ki (α1d (rat) adrenoreceptor) | Ki [1] | melting point
1 | COc1cccc2c1N1CCN(CCn3c(=O)[nH]c4c(sc5ncc(Cl)nc54)c3=O)CC1CO2.Cl.Cl (single isomer, unassigned; (-)) [Example 13, (−) 3-[2-(10-methoxy-1,2,4a,5-tetrahydropyrazino[2,1-c][1,4]benzoxazin-3(4H)-yl)ethyl]-8-chloropyrazino[2′,3′:4,5]thieno[3,2-d]pyrimidine-2,4(1H,3H)-dione dihydrochloride] | 3.52 nM | 0.685 nM | 280 to 282 °C
2 | COc1cccc2c1N1CCN(CCCn3c(=O)[nH]c4c(sc5cccnc54)c3=O)CC1CO2.Cl.Cl.Cl (single isomer, unassigned; (+)) [Example 17, (+) 3-[3-(10-methoxy-1,2,4a,5-tetrahydropyrazino[2,1-c][1,4]benzoxazin-3(4H)-yl)propyl]pyrido[2′,3′:4,5]thieno[3,2-d]pyrimidine-2,4(1H,3H)-dione trihydrochloride] | 20.5 nM | 2.5 nM | 219 to 224 °C
3 | Cl.Cl.O=c1[nH]c2c(sc3cccnc32)c(=O)n1CCCN1CCN2c3ccccc3OCC2C1 (single isomer, unassigned; (+)) [Example 1, (+) 3-[3-(1,2,4a,5-tetrahydropyrazino[2,1-c][1,4]benzoxazin-3(4H)-yl)propyl]pyrido[2′,3′:4,5]thieno[3,2-d]pyrimidine-2,4(1H,3H)-dione dihydrochloride] | 5.89 nM | 1.18 nM | 278 to 282 °C
4 | COc1cccc2c1N1CCN(CCCCn3c(=O)[nH]c4c(sc5cccnc54)c3=O)CC1CO2 (single isomer, unassigned; (+)) [Example 14, (+) 3-[4-(10-methoxy-1,2,4a,5-tetrahydropyrazino[2,1-c][1,4]benzoxazin-3(4H)-yl)butyl]pyido [2′,3′:4,5]thieno[3,2-d]pyrimidine-2,4(1H,3H)-dione trihydrochloride] | 2.16 nM | 0.243 nM | 
5 | COc1cccc2c1N1CCN(CCCCn3c(=O)[nH]c4c(sc5ncccc54)c3=O)CC1CO2.Cl.Cl.Cl (single isomer, unassigned; (+)) [Example 15, (+) 3-[4-(10-methoxy-1,2,4a,5-tetrahydropyrazino[2,1-c][1,4]benzoxazin-3(4H)-yl)butyl]pyrido[3′,2′:4,5]thieno[3,2-d]pyrimidine-2,4(1H,3H)-dione trihydrochloride] | 1.3 nM | 0.289 nM | 225 to 230 °C
6 | COc1cccc2c1N1CCN(CCCn3c(=O)[nH]c4c(sc5cccnc54)c3=O)CC1CO2.Cl.Cl.Cl (single isomer, unassigned; (-)) [Example 9, (−) 3-[3-(10-methoxy-1,2,4a,5-tetrahydropyrazino[2,1-c][1,4]benzoxazin-3(4H)-yl)propyl]pyrido[2′,3′:4,5]thieno[3,2-d]pyrimidine-2,4(1H, 3H)-dione trihydrochloride] | 1.28 nM | 0.249 nM | 215 to 220 °C
7 | Cl.Cl.O=c1[nH]c2c(sc3ncccc32)c(=O)n1CCCCN1CCN2c3ccccc3OCC2C1 (single isomer, unassigned; (+)) [Example 5, (+) 3-[4-(1,2,4a,5-tetrahydropyrazino[2,1-c][1,4]benzoxazin-3(4H)-yl)butyl]pyrido[3′, 2′:4,5]thieno[3,2-d]pyrimidine-2,4(1H,3H)-dione dihydrochloride] | 4.26 nM | 2.72 nM | 288 to 291 °C
8 | COc1cccc2c1N1CCN(CCn3c(=O)[nH]c4c(sc5cccnc54)c3=O)CC1CO2.Cl.Cl.Cl (single isomer, unassigned; (+)) [Example 16, (+) 3-[2-(10-methoxy-1,2,4a,5-tetrahydropyrazino[2,1-c][1,4]benzoxazin-3(4H)-yl)ethyl]pyrido[2′,3′:4,5]thieno[3,2-d]pyrimidine-2,4(1H,3H)-dione trihydrochloride] | 2.01 nM | 0.334 nM | 301 to 302 °C
9 | COc1cccc2c1N1CCN(CCn3c(=O)[nH]c4c(sc5cccnc54)c3=O)CC1CO2.Cl.Cl (single isomer, unassigned; (-)) [Example 7, (−) 3-[2-(10methoxy-1,2,4a,5-tetrahydropyrazino[2,1-c][1,4]benzoxazin-3(4H)-yl)ethyl]pyrido[2′,3′:4,5]thieno[3,2-d]pyrimidine-2,4(1H,3H)-dione dihydrochloride] | 1.13 nM | 0.251 nM | 297 to 298 °C
10 | COc1cccc2c1N1CCN(CCCCn3c(=O)[nH]c4c(sc5ncccc54)c3=O)CC1CO2 (single isomer, unassigned; (-)) [Example 11, (−) 3-[4-(10-methoxy-1,2,4a,5-tetrahydropyrazino[2,1-c][1,4]benzoxazin-3(4H)-yl)butyl]pyrido[3′,2′:4.5]thieno[3,2-d]pyrimidine-2,4(1H,3H)-dione trihydrochloride] | 0.427 nM | 0.387 nM | 
11 | O=c1[nH]c2c(sc3cccnc32)c(=O)n1CCCCN1CCN2c3ccccc3OCC2C1 (single isomer, unassigned; (-)) [Example 4, (−) 3-[4-(1.2,4a,5-tetrahydropyrazino[2,1-c][1,4benzoxazin-3(4H)-yl)butyl]pyrido[2′,3′:4,5]thieno[3,2-d]pyrimidine-2,4(1H,3H)-dione dihydrochloride] | 19.5 nM | 3.6 nM | 
12 | (−) 3-[3-(10-methoxy-1,2,4a,5-tetrahydropyrazino[2,1-c][1,4]benzoxazin-3(4H)-yl)butyl]pyrido[2′,3′:4,5]thieno[3,2-d]pyrimidine-2,4(1H,3H)-dione trihydrochloride [Example 10] | 0.344 nM | 0.243 nM | 
13 | O=c1[nH]c2c(sc3cccnc32)c(=O)n1CCCN1CCN2c3ccccc3OCC2C1 (single isomer, unassigned; (-)) [Example 2, (−) 3-[3-(1,2,4a,5-tetrahydropyrazino[2,1-c][1,4]benzoxazin-3(4H)-yl)propyl]pyrido[2′,3′:4,5]thieno[3,2-d]pyrimidine-2,4(1H,3H)-dione dihydrochloride] | 69.8 nM | 13.8 nM | 
